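A five-concentration, 48-hour dose response in 96-well plates underlies each endpoint, interpolated linearly between surrounding concentrations. GI50: concentration for 50% inhibition of growth.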 Calls of active or inactive are those of the source. Cut-off read from the data, not from the text of the source: active = GI50 up to about 1.1 µM and inactive = higher. Bounds are passed on as bounds.

Some test systems named below: HL-60; SK-MEL-2; M14; SF-295; UACC-257; UO-31; MDA-N; OVCAR-4; U-251; PC-3; COLO 205; MDA-MB-231; HCT-116; 786-0; SK-MEL-28; SF-268; MDA-MB-435; SR; HCC 2998; IGROV-1.
Common to all, as to experiment: NCI anticancer screen, dose series, 48 h

With `O=[N+]([O-])c1ncc(N(CCO)CCO)s1`, the GI50 in the assay with HL-60 was 17.7 µM (inactive); in the assay with SK-MEL-2, 21.6 µM (inactive); in the assay on M14, 34.8 µM (inactive); in the assay on SF-295, > 100 µM (inactive); with UACC-257, 25 µM (inactive); with UO-31 it was 43.1 µM (inactive). The GI50 was 30.3 µM (inactive) in the assay on MDA-N; > 100 µM (inactive) in the assay on OVCAR-4; 45.3 µM (inactive) in the assay with U-251; 41.3 µM (inactive) with PC-3; 21.9 µM (inactive) in the assay with COLO 205; 67.8 µM (inactive) in the assay with MDA-MB-231. Moreover, the GI50 with HCT-116 is 37.1 µM (inactive); with 786-0, 34 µM (inactive); with SK-MEL-28 it was 16.4 µM (inactive); in the assay on SF-268 it was 40.3 µM (inactive); with MDA-MB-435, 34.8 µM (inactive); in the assay on SR, 43.8 µM (inactive). Besides, the GI50 in the assay with HCC 2998 was 47 µM (inactive).

Consider `CC(=O)OC1O[C@@H](C(C)(C)O)CC[C@@H]1[C@H]1CC[C@@]2(C)C3=C(CC[C@]12C)[C@@]1(C)C[C@@H](OC(=O)CC(C)(O)CC(=O)O)[C@H](OC(C)=O)C(C)(C)C1CC3` (stereo partly drawn), for which the GI50 was 24.4 µM (inactive) in the assay with HL-60; 16.4 µM (inactive) in the assay with SK-MEL-2; 19.5 µM (inactive) in the assay with M14; 17.5 µM (inactive) with SF-295; 17.5 µM (inactive) in the assay with UACC-257; 15 µM (inactive) in the assay on UO-31. The GI50 in the assay with MDA-N was 19.2 µM (inactive); with OVCAR-4, 18 µM (inactive); with IGROV-1 it was 19.2 µM (inactive); in the assay with U-251 it was 16 µM (inactive); in the assay with PC-3, 17 µM (inactive); with MDA-MB-231, 23 µM (inactive). Moreover, the GI50 was > 10 µM (inactive) with HCT-116; 19.3 µM (inactive) with 786-0; 16.3 µM (inactive) with SK-MEL-28; 16.8 µM (inactive) in the assay on MDA-MB-435; 23.4 µM (inactive) in the assay with SR; 19 µM (inactive) in the assay on HCC 2998.

Regarding `Cc1cccc2c1Oc1cc(Cl)ccc1C2NC(=O)CCN1CCOCC1` (stereo not drawn), the GI50 in the assay on HL-60 was 32.2 µM (inactive); with M14 it was > 100 µM (inactive); with SF-295, > 100 µM (inactive); in the assay on UACC-257, > 100 µM (inactive); in the assay on UO-31, 49.8 µM (inactive); in the assay with MDA-N, > 100 µM (inactive). Besides, the GI50 in the assay on OVCAR-4, in the assay with IGROV-1, with U-251, with PC-3, in the assay with COLO 205 and in the assay on MDA-MB-231 was > 100 µM (inactive) throughout. Besides, the GI50 in the assay on HCT-116, in the assay with 786-0, in the assay on SK-MEL-28, with SF-268, with MDA-MB-435 and in the assay with SR was > 100 µM (inactive) in each case. The GI50 in the assay with HCC 2998 was > 100 µM (inactive).

Regarding `Cc1ccc([N+](=O)[O-])cc1S(=O)(=O)Nc1ccc(C2=NN(C(=O)c3ccccc3)C(c3cccs3)C2)cc1` (stereo not drawn), the GI50 in the assay with HL-60 was 26.3 µM (inactive); with SK-MEL-2, 14.9 µM (inactive); in the assay on M14, 24.1 µM (inactive); in the assay on SF-295, 21 µM (inactive); with UACC-257, 21.5 µM (inactive); with UO-31, 24 µM (inactive). Also, the GI50 in the assay on MDA-N is 23.8 µM (inactive); in the assay on OVCAR-4 it was 25.6 µM (inactive); with IGROV-1, 16.9 µM (inactive); in the assay with U-251 it was 20.8 µM (inactive); in the assay with PC-3, 21.9 µM (inactive); in the assay on COLO 205, 16.9 µM (inactive). Besides, the GI50 is 16.3 µM (inactive) in the assay with MDA-MB-231; 22.3 µM (inactive) with HCT-116; 17.9 µM (inactive) in the assay with 786-0; 63.5 µM (inactive) in the assay with SK-MEL-28; 20 µM (inactive) in the assay on SF-268; 33.1 µM (inactive) in the assay on MDA-MB-435. Besides, in the assay on SR, the GI50 was 28.8 µM (inactive).

Turning to `CN(C)CCNC(=O)c1cccc2c1Oc1cccc([N+](=O)[O-])c1O2`, the GI50 in the assay with HL-60 was 17.1 µM (inactive); in the assay on SK-MEL-2, 23.5 µM (inactive); with M14, 16.2 µM (inactive); in the assay on SF-295 it was 17.5 µM (inactive); in the assay on UACC-257, 18.5 µM (inactive); in the assay on UO-31, 15.7 µM (inactive). The GI50 in the assay with MDA-N is 17.7 µM (inactive); with IGROV-1 it was 18.9 µM (inactive); in the assay with U-251, 21 µM (inactive); with PC-3, 15.4 µM (inactive); in the assay with COLO 205, 21.6 µM (inactive); in the assay on MDA-MB-231 it was 4.33 µM (inactive). Further, the GI50 in the assay with HCT-116 was 16.9 µM (inactive); with 786-0, 19.2 µM (inactive); with SK-MEL-28, 18.8 µM (inactive); in the assay with SF-268, 21.2 µM (inactive); in the assay on MDA-MB-435, 16.5 µM (inactive); in the assay on SR, 21.1 µM (inactive). Further, the GI50 in the assay with HCC 2998 is 23.7 µM (inactive).

Regarding `c1ccc(CNCCCCNCCCNCc2ccccc2)cc1`, the GI50 is 31.6 µM (inactive) in the assay on SK-MEL-2; 29.1 µM (inactive) in the assay on M14; > 100 µM (inactive) in the assay with SF-295; 17.3 µM (inactive) with UACC-257; 21.5 µM (inactive) with UO-31; 12.9 µM (inactive) in the assay with MDA-N. Further, the GI50 in the assay on OVCAR-4 is 17.8 µM (inactive); in the assay with IGROV-1, 13.1 µM (inactive); in the assay with U-251, 17.8 µM (inactive); with PC-3, 13.6 µM (inactive); in the assay with COLO 205, 13.6 µM (inactive); in the assay with MDA-MB-231, 15.2 µM (inactive). For the same molecule, the GI50 in the assay with HCT-116 is 17.3 µM (inactive); with 786-0, 17.2 µM (inactive); with SK-MEL-28, 16 µM (inactive); with SF-268 it was 18.8 µM (inactive); in the assay with MDA-MB-435, 16.4 µM (inactive); in the assay on SR, 17.6 µM (inactive). Moreover, the GI50 in the assay with HCC 2998 was 16.9 µM (inactive).

As to `O=C(Nc1c(Cl)cc([N+](=O)[O-])cc1Cl)C(=O)C1C(=O)NC(=S)NC1=O`, the GI50 in the assay on HL-60, in the assay with SK-MEL-2, with M14, in the assay on SF-295, in the assay on UACC-257 and with UO-31 was > 100 µM (inactive) throughout. In addition, the GI50 with MDA-N, in the assay on OVCAR-4, in the assay on IGROV-1, in the assay with U-251, in the assay with PC-3 and with MDA-MB-231 was > 100 µM (inactive) throughout. Also, the GI50 in the assay on HCT-116 was > 100 µM (inactive); with 786-0 it was > 100 µM (inactive); in the assay with SK-MEL-28, > 100 µM (inactive); with SF-268, > 100 µM (inactive); with MDA-MB-435, > 100 µM (inactive); in the assay with SR, > 10 µM (inactive). The GI50 in the assay with HCC 2998 was > 100 µM (inactive).

Take `CC(=O)c1c2c(cc3c1CC1(C3)Cc3cc4c(c(C(C)=O)c3C1)CCCC4)CCCC2`: the GI50 was 15.8 µM (inactive) in the assay on HL-60; 19.7 µM (inactive) in the assay on SK-MEL-2; > 100 µM (inactive) in the assay on M14; > 100 µM (inactive) in the assay on SF-295; 25.1 µM (inactive) in the assay with UACC-257; 0.104 µM (active) with UO-31. The GI50 with MDA-N was 38.4 µM (inactive); with OVCAR-4, 53.2 µM (inactive); in the assay with IGROV-1, > 100 µM (inactive); with U-251, > 100 µM (inactive); in the assay with PC-3, 21.4 µM (inactive); in the assay with COLO 205 it was > 100 µM (inactive). Also, the GI50 in the assay with MDA-MB-231 was > 100 µM (inactive); with HCT-116 it was 55.8 µM (inactive); in the assay with 786-0 it was 45.6 µM (inactive); with MDA-MB-435, 57.7 µM (inactive); in the assay with SR it was 16.3 µM (inactive); with HCC 2998, > 100 µM (inactive).

With `c1cc(C[S+]2CCCC2)ccc1C[S+]1CCCC1`, the GI50 with HL-60, in the assay with M14, with SF-295, with UACC-257, in the assay on UO-31 and in the assay on MDA-N was > 100 µM (inactive) in each case. The GI50 with OVCAR-4, with IGROV-1, in the assay with U-251, with PC-3, in the assay on COLO 205 and in the assay with MDA-MB-231 was > 100 µM (inactive) each time. For the same molecule, the GI50 with HCT-116, with 786-0, with SK-MEL-28, in the assay on SF-268, in the assay on MDA-MB-435 and with SR was > 100 µM (inactive) in each case. For the same molecule, the GI50 with HCC 2998 is > 100 µM (inactive).

Turning to `O=C(Cc1ccccc1)Nn1c(-c2ccccc2)nc2ccccc2c1=O`, the GI50 with HL-60, in the assay with M14, with SF-295, in the assay on UACC-257, in the assay on UO-31 and in the assay on MDA-N was > 100 µM (inactive) throughout. The GI50 in the assay with OVCAR-4, in the assay on IGROV-1, with U-251, with PC-3, with COLO 205 and in the assay on MDA-MB-231 was > 100 µM (inactive) each time. Further, the GI50 in the assay with HCT-116, in the assay on 786-0, in the assay with SK-MEL-28, with SF-268, in the assay on MDA-MB-435 and with SR was > 100 µM (inactive) throughout. In addition, the GI50 in the assay with HCC 2998 is > 100 µM (inactive).

(Values after ChEMBL document CHEMBL1201862, “PubChem BioAssay data set” (2004).)
